ChEMBL document CHEMBL1141530, “Synthesis and SAR of 1-acetanilide-4-aminopyrazole-substituted quinazolines: selective inhibitors of Aurora B kinase with potent anti-tumor activity” (Bioorg Med Chem Lett, 2008)
Values after ≈ are worked out from the molar mass of the structure shown. Active and inactive are the calls of the source. The calls are words filed in the database; no cut-off is given here.

Tests used:
Mus musculus [1] = test: Inhibition of histone-H3 phosphorylation in human SW620 cells xenografted mouse at 2.5 mg/kg/day, sc after 48 hrs; assay type: functional; settings: SW-620, sc, route subcutaneous
Mus musculus [2] = test: Inhibition of histone-H3 phosphorylation in human SW620 cells xenografted mouse at 0.5 mg/kg/day, sc after 48 hrs; assay type: functional, organism-based; settings: SW-620
SW-620 [3] = test: Antiproliferative activity against human SW620 cells assessed as inhibition of DNA synthesis after 48 hrs by 2-h BrdU uptake assay; assay type: functional, cell-based
[4] = molecular target: Voltage-gated inwardly rectifying potassium channel KCNH2 (Homo sapiens, UniProt Q12809); test: Inhibition of human ERG by automated whole cell electrophysiology
[5] = Solubility in tris buffer at pH 9; assay type: physicochemical
Cytochrome P450 3A4 = Cytochrome P450 3A4 (Homo sapiens, UniProt P08684); test: Inhibition of human CYP3A4; assay type: ADME
SW-620 [6] = test: Antitumor activity against human SW620 cells xenografted in mouse assessed as tumor growth inhibition at 50 mg/kg after 24 hrs; assay type: functional; design: scale not given: the % may be the effect or the level left
SW-620 [7] = test: Antitumor activity against human SW620 cells xenografted in mouse assessed as reduction in tumor size at 2.5 mg/kg after 48 hrs; assay type: functional, organism-based; design: dose 2.5 mg/kg

Voltage-gated inwardly rectifying potassium channel KCNH2, sequence (Q12809 whole entry): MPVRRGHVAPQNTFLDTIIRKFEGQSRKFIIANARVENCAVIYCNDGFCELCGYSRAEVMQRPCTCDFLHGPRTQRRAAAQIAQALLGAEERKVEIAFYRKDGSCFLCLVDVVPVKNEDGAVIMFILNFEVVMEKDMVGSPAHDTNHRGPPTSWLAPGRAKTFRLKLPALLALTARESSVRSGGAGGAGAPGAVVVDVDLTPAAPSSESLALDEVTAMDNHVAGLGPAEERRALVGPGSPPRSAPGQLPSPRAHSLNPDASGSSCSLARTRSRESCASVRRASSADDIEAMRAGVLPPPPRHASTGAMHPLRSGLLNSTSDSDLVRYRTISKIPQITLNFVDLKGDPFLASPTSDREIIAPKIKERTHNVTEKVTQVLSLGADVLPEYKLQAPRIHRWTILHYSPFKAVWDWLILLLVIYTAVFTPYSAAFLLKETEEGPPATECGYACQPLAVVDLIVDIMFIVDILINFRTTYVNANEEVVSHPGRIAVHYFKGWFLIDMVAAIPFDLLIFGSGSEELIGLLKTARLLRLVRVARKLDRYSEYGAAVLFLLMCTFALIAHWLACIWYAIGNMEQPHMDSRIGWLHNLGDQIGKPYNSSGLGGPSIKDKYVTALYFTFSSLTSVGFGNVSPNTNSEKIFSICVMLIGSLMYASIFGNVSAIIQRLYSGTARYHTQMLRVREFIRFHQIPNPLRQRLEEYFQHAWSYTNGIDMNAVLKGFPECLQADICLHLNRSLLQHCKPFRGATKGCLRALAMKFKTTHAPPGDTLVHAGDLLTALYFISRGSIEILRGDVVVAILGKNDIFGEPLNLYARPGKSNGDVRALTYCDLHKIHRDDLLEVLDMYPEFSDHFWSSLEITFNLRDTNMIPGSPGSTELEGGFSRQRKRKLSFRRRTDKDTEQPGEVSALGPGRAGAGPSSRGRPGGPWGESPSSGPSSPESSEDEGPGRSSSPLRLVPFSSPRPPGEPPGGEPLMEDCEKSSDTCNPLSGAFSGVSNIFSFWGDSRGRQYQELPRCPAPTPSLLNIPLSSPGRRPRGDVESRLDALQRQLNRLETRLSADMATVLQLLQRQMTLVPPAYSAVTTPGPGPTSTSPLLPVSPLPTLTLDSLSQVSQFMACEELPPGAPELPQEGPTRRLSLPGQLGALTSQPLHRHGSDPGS
Cytochrome P450 3A4, sequence (P08684 whole entry): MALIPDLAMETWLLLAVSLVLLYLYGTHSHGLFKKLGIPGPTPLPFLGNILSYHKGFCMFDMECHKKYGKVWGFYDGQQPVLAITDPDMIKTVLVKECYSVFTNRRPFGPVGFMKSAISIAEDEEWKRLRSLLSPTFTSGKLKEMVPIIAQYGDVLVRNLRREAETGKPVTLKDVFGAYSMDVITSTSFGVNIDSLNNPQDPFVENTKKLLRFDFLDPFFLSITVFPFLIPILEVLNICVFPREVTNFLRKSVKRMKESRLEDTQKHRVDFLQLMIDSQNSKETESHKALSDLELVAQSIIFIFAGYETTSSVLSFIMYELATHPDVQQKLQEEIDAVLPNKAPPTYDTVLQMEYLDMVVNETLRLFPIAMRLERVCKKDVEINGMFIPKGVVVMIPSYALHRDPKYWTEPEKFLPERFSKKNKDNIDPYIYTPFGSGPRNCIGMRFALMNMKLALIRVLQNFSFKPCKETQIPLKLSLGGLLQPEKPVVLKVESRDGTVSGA

IC50 (SW-620 [3]): < 0.001 µM
solubility [5]: 10 mg/mL (≈ 16.2 mM)
IC50 (Cytochrome P450 3A4): 6.1 µM
Compound: O=C(Cn1cc(Nc2ncnc3cc(OCCCN4CCC[C@@H]4COP(=O)(O)O)ccc23)cn1)Nc1cccc(F)c1F
inhibition in vivo at 2.5 mg/kg/day (Mus musculus [1]): 75%
Activity (Mus musculus [2]): Active
IC50 [4]: > 100 µM
Activity (SW-620 [6]): 89%
Activity (SW-620 [7]): Active
